From US5334761A, “Cationic lipids” (Life Technologies, Inc., priority 1992, dated 1994)
Where a name gives a salt, the structure may show the parent alone.

How the values were obtained:
COS-7 cells = assay: CAT transient transfection; format: cell-based
Procedure: (§1) A one-to-one mixture (by weight) of the desired lipid and dioleylphosphatidyl ethanolamine was prepared in CHCl3. The CHCl3 was removed on the rotary evaporator to obtain a thin film of lipid mixture. The mixture was hydrated with enough water to obtain approximately 1.25 mg of lipid per ml of solution. The solution was passed through a microfluidizer twice and diluted to 1 mg/ml. The liposome formulation was then filtered through a 0.2 μ filter. Compound 8 was also formulated without DOPE either by sonication at 1 mg/ml in water or by dissolving a dried lipid film with ethanol and then adding water to give a final concentration of 2.5 mg/ml. Ethanol was 10% of that volume. In some instances, this was further diluted with water to 1 mg/ml, 4% ethanol.
(§2) Baby hamster kidney (BHK-21) , COS-7, HeLa-S3 cells, and normal human fibroblasts isolated from newborn foreskin dermis were grown in Dulbecco's-modified Eagle's medium (DMEM) containing 10% fetal bovine serum (FBS), 2 mM L-glutamine (gln), 0.1 mM MEM nonessential amino acids (NEAA), 100 U/ml penicillin, and 100 μg/ml streptomycin. NIH-3T3 cells were grown in DMEM containing 10% calf serum (CS), 2 mMgln, 0.1 mM NEAA 100 U/ml penicillin, and 100 μg/ml streptomycin. PC12 cells were grown in DMEMcontaining 10% horse serum, 5% FBS, 2 mM gln, 0 1 mMNEAA, 100 U/ml penicillin and 100 μ/ml streptomycin. Jurkat cells (human lymphoid cell line) were grown in RPMI-1640 supplemented with 10% FBS, 2mML-glutamine, 100 U/ml penicillin, and 100 μg/ml streptomycin. Human keratinocytes were isolated from newborn foreskin epidermis and cultured in Keratinocyte Growth Medium (Clonetics, San Diego, Ca.). All cell lines were maintained in a humidified incubator with a 5% CO2 atmosphere at 37° C.
(§3) pSV2CAT (5.0 Kb) was described previously (Gorman, C. M. et al. (1982) Mol. Cell. Biol. 2:1044). pCMVCAT (5.0 Kb) was also described previously (Foecking M. K. and Hofstetter, H. (1986) Gene 45:101). Plasmid DNA was purified by isopycnic centrifugation in CsCl/EtBr gradients after recovery by alkaline lysis (Maniatis, T. et al. (1982) in Molecular Cloning: A Laboratory Manual, Cold Spring Harbor Laboratory, Cold Spring Harbor, N.Y., pp. 90-91).
(§4) For transient transfection of pSV2CAT DNA or pCMVCAT DNA, cells were plated in 6-well tissue culture dishes (35 mm wells) and incubated overnight to approximately 60% confluency. To transfect cells in one well, 1-2 μg of pSV2CAT DNA or pCMVCAT DNA was diluted in 100 μl Opti-MEM I. Cationic lipids were diluted separately in another 100 μl aliquot of Opti-MEM I. The two solutions were then mixed in a polystyrene tube, incubated for 10-15 min at room temperature to allow the formation of a DNA-liposome complex, and diluted to one ml by adding 0.8 ml Opti-MEM I or DMEM containing 5% fetal bovine serum (FBS), 2 mMgln, 0.1 mMNEAA, and lacking antibiotics. The cells were washed once with Opti-MEM I or serum-free DMEM, and the DNA-liposome complex was added directly to the cells. After a six hr incubation at 37° C., the transfection complexes were removed and two ml of DMEM containing 10% FBS, 2 mMgln, 0.2 mMNEAA, 100 U/ml penicillin, and 100 μg/ml streptomycin, was added to each well. Note: human keratinocytes were cultured and transfected in Keratinocyte Growth Medium. Cells were incubated for an additional 48 hrs and lysed in situ by freeze-thawing once or twice in 300 μl 0.1M Tris-HC1, pH 7.8-8.0 containing 0 1% Triton X-100. Cell lysates were assayed for CAT activity.
(§5) Cell lysates were assayed for CAT activity as described by Neumann et al. (1987) BioTechniques 5:444 using [^14 C]-butyryl coenzyme A (New England Nuclear, Boston, Mass.). The enzyme reactions were incubated for 2 hrs at 37° C., overlayed with 3.0 ml Econofluor (New England Nuclear) and then incubated for an additional 2 hrs to allow diffusion of the acetylated chloramphenicol into the scintillation fluid. CAT activity was determined by measuring radioactivity in a liquid scintillation counter. […]

normal human fibroblasts = assay: CAT transient transfection; format: cell-based
Procedure: as §1, §2, §3, §4, §5

[1] = system: normal human keratinocytes; assay: CAT transient transfection; format: cell-based; conditions: keratinocytes
Procedure: as §1, §2, §3, §4, §5

[2] = % protein (toxicity estimate, Bradford) after transfection; format: cell-based, human; conditions: human, jurkat cells, 15 μg lipid; 2 μg pCMVCAT; 6 h RPMI1640
Procedure: as §1, §2
(§6) For transient nuclear expression of pSV2CAT or pCMVCAT in Jurkat cells, cells were washed with Opti-MEM I or serum-free RPMI 1640 containing 2 mM gln and plated in six-well plates at a density of 3×10^6 cells per well in 0.8 ml Opti-MEM I or RPMI 1640. For each transfection, 5 μg pSV2CAT DNA or 2 μg pCMVCAT DNA was diluted in 100 μl Opti-MEM I. Lipids were diluted separately in another 100 μl aliquot of Opti-MEMI. The two solutions were then mixed in a polystyrene tube and incubated for 10-15 min at room temperature. The DNA-liposome complex was added to the cell suspensions and incubated 6 hours at 37° C., after which 4 ml growth medium were added per well (RPMI-1640; 10% FBS). Phorbol myristate acetate (Sigma Chemical Co., St. Louis, Mo.) and phytohemagglutinin (Sigma) were also added to a final concentration of 50 ng/ml and 1 μg/ml, respectively, to activate the cells. Cells were harvested at approximately 48 hours post-transfection by centrifugation. Cell lysates were prepared by resuspending cell pellets at 0° C. in 0.1 M Tris-HC1 pH 8.0 containing 0.1% Triton X-100 and freeze-thawing once. Cell lysates were cleared by centrifugation and assayed for CAT activity.
(§7) The "% protein" column indicates the relative amount of protein in the sample tested for CAT activity and therefore provides a way to estimate toxicity of the compounds being tested. The "CAT Activity" column indicates the relative transfection effectiveness of the lipid formulation in the various cell lines. The control sample was a cell culture grown under similar conditions as those that were transfected, but with no DNA or cationic lipid added. Protein was measured using a commercially available Bradford protein assay (BioRad Laboratories, Richmond, Ca.).
(§8) Jurkat cells (3 × 10^6 cells) were transfected in OPTIMEM with
(§9) μg of pSV2CAT DNA for 6 hours.
(§10) DNA-lipid complexes were made in OPTIMEM. Jurkat cells (3 × 10^
(§11) cells) were transfected in RPMI1640 with 2 μg of pCMVCAT DNA for 6

Jurkat cells = assay: as above; format: cell-based, human; conditions: Jurkat
Procedure: as §1, §2, §6, §7, §8, §9, §10, §11

## CCCCCCCC/C=C\CCCCCCCCOCC(C[N+](C)(C)CCNC(=O)C(CCCNCCCN)NCCCN)OCCCCCCCC/C=C\CCCCCCCC (stereo not drawn) [Compound 8, 1-Propanaminium, N-[2-[[2,5-bis[(3-amino]-1-oxopentyl]amino]ethyl]-n,n-dimethyl-2,3,-bis(9-octadecenyloxy)-, tetra(trifluoroacetate) salt]
COS-7 cells; 12 μg lipid, 1 μg pSV2CAT, 6 h DMEM
  CAT ACTIVITY: 14,282 CPM/150 ul
COS-7 cells; Cos-7
  DNA transfection (in words): highly effective
Normal human fibroblasts
  DNA transfection (in words): successfully transfected
[1]
  DNA transfection (in words): highly effective
[2]
  viability at 6 h: 47%
Jurkat cells
  toxicity (in words): minimal toxicity
